The values that follow come from US8153630B2, “Kinase inhibitors” (Miikana Therapeutics, Inc., priority 2004, dated 2012).

Structures are written as SMILES.

One assay deals with HCT 116 Cells. The experiment in a line: Aurora kinase whole cell cytotoxicity assay: Sulforhodamine B. It is filed as cell-based. The settings on record: Homo sapiens, HCT116, SRB staining, 96 hours incubation. On the procedure: Human tumour-derived cell lines, HCT116 or MCF7 (ATCC) were plated in a 96 well plate in DMEM containing 10% fetal bovine serum and 2 mM L-glutamine at a density of 500 HCT116 cells or 1,000 MCF7 cells per well and incubated at 37° C., 5% CO2, for 24 hours prior to the addition of experimental compounds. Compounds were added using the dilution series indicated to duplicate plates and the cells were incubated in media plus compound for 96 hours. An additional plate was fixed in 10% TCA at the time of the addition of compound to provide a measurement of the cell population at time zero, the time of drug addition. Following the 96 hour incubation, cells were fixed in situ by gently aspirating off the culture media and then adding 50 ul of ice cold 10% TCA per well and incubation at 4° C. for 60 minutes. The plates were washed with tap water five times and allowed to air dry for 5 minute. 50 ul of a 0.4% (w/v) Sulforhodamine B solution in 1% (v/v) acetic acid was added per well and the cells were incubated for 30 minutes at room temperature. Following staining, plates were washed four times with 1% acetic acid to remove any unbound dye and then allowed to air dry for 5 minutes. The stain was solubilized with 100 ul of 10 mM Tris pH 10.5 per well and placed on an orbital rotator for 5 minutes. The absorbance was read at 570 nm. Percentage growth was calculated using the absorbance readings from the time zero plate (Tz) and the dilution series plate […] which included a column of cells grown in media without compound as a control (C) using the formulas: [(Ti−Tz)/(C−Tz)]×100 for concentrations for which Ti>/=Tz [(Ti−Tz)/Tz]×100 for concentrations for which Ti<Tz.
Three dose response parameters were calculated for each experimental agent. Growth inhibition of 50% (GI50) was calculated from [(Ti−Tz)/(C−Tz)]×100=50, which was the drug concentration resulting in a 50% reduction in the net protein increase (as measured by SRB staining) in control cells during the drug incubation. The drug concentration resulting in total growth inhibition (TGI) was calculated from Ti=Tz. The LC50 (concentration of drug resulting in a 50% reduction in the measured protein at the end of the drug treatment as compared to that at the beginning) indicating a net loss of cells following treatment ws calculated from [(Ti−Tz)/Tz]×100=−50. Values are calculated for each of these three parameters if the level of activity was reached; however, if the effect was not reached or was exceeded, the value for that parameter is expressed as greater or less than the maximum or minimum concentration tested.
A general note: The SRB assay estimates cell density from bound dye.

A further assay addresses T1, recombinant Aurora A (Homo sapiens, UniProt O14965).
T1 construct: purchased Upstate, Lake Placid, N.Y
T1 sequence (O14965 1-403): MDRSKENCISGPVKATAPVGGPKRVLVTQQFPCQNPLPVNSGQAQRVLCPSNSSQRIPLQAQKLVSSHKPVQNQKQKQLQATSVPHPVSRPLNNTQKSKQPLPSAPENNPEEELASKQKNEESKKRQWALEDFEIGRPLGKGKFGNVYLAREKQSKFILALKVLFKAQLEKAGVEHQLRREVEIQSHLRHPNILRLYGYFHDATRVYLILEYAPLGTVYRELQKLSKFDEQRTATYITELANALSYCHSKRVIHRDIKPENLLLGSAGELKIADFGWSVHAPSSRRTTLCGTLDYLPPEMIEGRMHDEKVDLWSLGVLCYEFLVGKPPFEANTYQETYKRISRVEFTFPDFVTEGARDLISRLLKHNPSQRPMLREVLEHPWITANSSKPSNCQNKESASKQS
The experiment in a line: PanVera Z'-Lyte Aurora kinase assay. It is filed as biochemical. The note with it: Z'-Lyte Ser/Thr 1 peptide 2 μM, ATP 10 μM, 1 h. On the procedure:
Compounds 7-14 above were tested for their potency against recombinant Aurora A (Upstate, Lake Placid, N.Y.) using the PanVera Z'-Lyte kinase assay kit—Ser/Thr 1 peptide (Invitrogen, Carlsbad, Calif.). Assays were carried out in kinase assay buffer (50 mM HEPES, pH 7.5, 10 mM MgCl2, 5 mM EGTA, 0.05% Brij-35, 2 mM DTT). Test compounds were initially dissolved in DMSO at 100× the highest tested concentration, then serially diluted to 4× test concentrations in kinase assay buffer. Next, Aurora A (final concentration 200-500 ng/mL), Z′-Lyte Ser/Thr 1 peptide (final concentration 2 μM) and ATP (final concentration 10 μM) were added according to the manufacturer's instructions. Assays were carried out in half-area 96-well white polystyrene assay plates (Corning, Corning, N.Y.) in a final volume of 20 μL. The reaction was allowed to proceed for 1 h at room temperature in the dark, at which point the development reagent and stop reagent were added according to the manufacturer's instructions. Coumarin (Ex. 400 nm, Em. 465 nm) and fluorescein (Ex. 400 nm, Em. 565 nm) fluorescence values were measured on a SpectraFluor Plus plate reader (Tecan, Durham, N.C.). The emission ratio (coumarin/fluorescein) was determined and used to calculate the percent phosphorylation for each well. Wells containing substrate but no kinase and wells containing a phosphopeptide control were used to set 0% and 100% phosphorylation values, respectively. Typically 20-40% of the substrate was phosphorylated in wells without inhibitor. Dose-response curves of relative Aurora A activity vs. inhibitor concentration were plotted with Grafit (Erithacus Software, Horley, Surrey, UK) and used to calculate IC50 values.

On to `Cc1cc(Nc2nc(Sc3ccc(NC(=O)C4CC4)cc3)nc(C(=O)OCCN3CCOCC3)c2N)n[nH]1` [Compound 18, 2-Morpholin-4-ylethyl 2-(4-cyclopropanecarboxamidophenylsulfanyl)-5-amino-6-(5-methylpyrazol-3-ylamino)-4-pyrimidinecarboxylate], for which the GI50 with HCT 116 Cells lay within 1000 to 10000 nM. Besides, the half-inhibitory concentration (IC50) on recombinant Aurora A was below 100 nM.

In the assay on HCT 116 Cells, `Cc1cc(Nc2nc(Sc3ccc(NC(=O)C4CC4)cc3)nc(C(=O)NCC3CCCO3)c2N)n[nH]1` (stereo not drawn) [Compound 54, N-(Tetrahydrofuran-2-ylmethyl) 2-(4-cyclopropanecarboxamidophenylsulfanyl)-5-amino-6-(5-methylpyrazol-3-ylamino)-4-pyrimidinecarboxamide] yielded a concentration for 50% growth inhibition (GI50) of 100 to 1000 nM. On recombinant Aurora A, the IC50 is below 100 nM.

`COCCCNC(=O)c1nc(Sc2ccc(NC(=O)C3CC3)cc2)nc(Nc2cc(C)[nH]n2)c1N` [Compound 55, N-(3-Methoxypropyl) 2-(4-cyclopropanecarboxamidophenylsulfanyl)-5-amino-6-(5-methylpyrazol-3-ylamino)-4-pyrimidinecarboxamide]: the GI50 with HCT 116 Cells is 100 to 1000 nM. Also, the IC50 at recombinant Aurora A is below 100 nM.

`Cc1cc(Nc2nc(Sc3ccc(NC(=O)C4CC4)cc3)nc(C(=O)N3CCCCC3)c2N)n[nH]1` [Compound 53, Piperidin-1-yl 2-(4-cyclopropanecarboxamidophenylsulfanyl)-5-amino-6-(5-methylpyrazol-3-ylamino)-4-pyrimidinecarboxamide] displayed a concentration for 50% growth inhibition (GI50) in the assay with HCT 116 Cells of 100 to 1000 nM. Besides, the half-maximal inhibitory concentration (IC50) on recombinant Aurora A was below 100 nM.

In the assay on HCT 116 Cells, `Cc1cc(Nc2nc(Sc3ccc(NC(=O)C4CC4)cc3)nc(C(=O)NCc3cccs3)c2N)n[nH]1` [Compound 59, N-(2-Thien-2-ylmethyl) 2-(4-cyclopropanecarboxamidophenylsulfanyl)-5-amino-6-(5-methylpyrazol-3-ylamino)-4-pyrimidinecarboxamide] registered a GI50 of 1000 to 10000 nM. Further, the 50% inhibitory concentration (IC50) at recombinant Aurora A is below 100 nM.

On to `COCC(C)NC(=O)c1nc(Sc2ccc(NC(=O)C3CC3)cc2)nc(Nc2cc(C)[nH]n2)c1N` (stereo not drawn) [Compound 61, N-(2-Methoxy-1-methylethyl) 2-(4-cyclopropanecarboxamidophenylsulfanyl)-5-amino-6-(5-methylpyrazol-3-ylamino)-4-pyrimidinecarboxamide], for which the GI50 in the assay on HCT 116 Cells was 100 to 1000 nM. The half-maximal inhibitory concentration (IC50) on recombinant Aurora A was below 100 nM.

On to `Cc1cc(Nc2nc(Sc3ccc(NC(=O)C4CC4)cc3)nc(C(=O)OC3CCOCC3)c2N)n[nH]1` [Compound 19, Tetrahydro-2H-pyran-4-yl 2-(4-cyclopropanecarboxamidophenylsulfanyl)-5-amino-6-(5-methylpyrazol-3-ylamino)-4-pyrimidinecarboxylate], for which the GI50 in the assay on HCT 116 Cells lay within 100 to 1000 nM. Also, at recombinant Aurora A, the IC50 is below 100 nM.

Regarding `Cc1cc(Nc2nc(Sc3ccc(NC(=O)C4CC4)cc3)nc(C(=O)OCCN3CCCCC3)c2N)n[nH]1` [Compound 48, 2-Piperidin-1-ylethyl 2-(4-cyclopropanecarboxamidophenylsulfanyl)-5-amino-6-(5-methylpyrazol-3-ylamino)-4-pyrimidinecarboxylate], the 50% growth inhibitory concentration (GI50) in the assay on HCT 116 Cells was in the range of 1000 to 10000 nM. Further, the 50% inhibitory concentration (IC50) at recombinant Aurora A is below 100 nM.

In the case of `Cc1cc(Nc2nc(Sc3ccc(NC(=O)C4CC4)cc3)nc(C(=O)NC3CCOCC3)c2N)n[nH]1` [Compound 63, N-Tetrahydro-2H-pyran-4-yl 2-(4-cyclopropanecarboxamidophenylsulfanyl)-5-amino-6-(5-methylpyrazol-3-ylamino)-4-pyrimidinecarboxamide], in the assay on HCT 116 Cells, the GI50 was in the range of 100 to 1000 nM. Also, at recombinant Aurora A, the IC50 was below 100 nM.

In turn, `Cc1cc(Nc2nc(Sc3ccc(NC(=O)C4CC4)cc3)nc(C(=O)N3CCSCC3)c2N)n[nH]1` [Compound 45, Thiomorpholin-4-yl 2-(4-cyclopropanecarboxamidophenylsulfanyl)-5-amino-6-(5-methylpyrazol-3-ylamino)-4-pyrimidinecarboxamide] gave a 50% growth inhibitory concentration (GI50) in the assay on HCT 116 Cells of 1000 to 10000 nM. Moreover, the IC50 at recombinant Aurora A was below 100 nM.

`Cc1cc(Nc2nc(Sc3ccc(NC(=O)C4CC4)cc3)nc(C(=O)NCc3ccco3)c2N)n[nH]1` [Compound 58, N-(2-Furylmethyl) 2-(4-cyclopropanecarboxamidophenylsulfanyl)-5-amino-6-(5-methylpyrazol-3-ylamino)-4-pyrimidinecarboxamide]: the concentration for 50% growth inhibition (GI50) in the assay with HCT 116 Cells is 1000 to 10000 nM. The half-maximal inhibitory concentration (IC50) at recombinant Aurora A is below 100 nM.

In the assay on HCT 116 Cells, `Cc1cc(Nc2nc(Sc3ccc(NC(=O)C4CC4)cc3)nc(C(=O)NC3CCN(C)CC3)c2N)n[nH]1` [Compound 64, N-(1-Methylpiperidin-4-yl) 2-(4-cyclopropanecarboxamidophenylsulfanyl)-5-amino-6-(5-methylpyrazol-3-ylamino)-4-pyrimidinecarboxamide] showed a 50% growth inhibitory concentration (GI50) of 100 to 1000 nM. In addition, on recombinant Aurora A, the IC50 is below 100 nM.

`Cc1cc(Nc2nc(Sc3ccc(NC(=O)C4CC4)cc3)nc(C(=O)OCc3ccccc3)c2N)n[nH]1` [Compound 66, Benzyl 2-(4-cyclopropanecarboxamidophenylsulfanyl)-5-amino-6-(5-methylpyrazol-3-ylamino)-4-pyrimidinecarboxylate] returned a 50% growth inhibitory concentration (GI50) in the assay on HCT 116 Cells of 100 to 1000 nM. Besides, the IC50 on recombinant Aurora A was below 100 nM.

For `Cc1cc(Nc2nc(Sc3ccc(NC(=O)C4CC4)cc3)nc(C(=O)OCC[Si](C)(C)C)c2N)n[nH]1` [Compound 67], the GI50 with HCT 116 Cells fell in the range of 1000 to 10000 nM. Besides, the IC50 on recombinant Aurora A fell in the range of 100 to 1000 nM.

As for `CCOC(=O)c1nc(Nc2ccc(NC(=O)C3CC3)cc2)nc(Nc2cc(C)[nH]n2)c1N` [Compound 36, Ethyl 2-({4-[(cyclopropylcarbonyl)amino]phenyl}amino)-5-amino-6-(5-methylpyrazol-3-ylamino)-4-pyrimidinecarboxylate], the GI50 in the assay with HCT 116 Cells lay in the range of 1000 to 10000 nM. Further, the IC50 on recombinant Aurora A is below 100 nM.

`COC(=O)c1nc(Sc2ccc(NC(=O)C3CC3)cc2)nc(Nc2cc(C)[nH]n2)c1N` [Compound 7, Methyl 2-(4-cyclopropanecarboxamidophenylsulfanyl)-5-amino-6-(5-methylpyrazol-3-ylamino)-4-pyrimidinecarboxylate]: in the assay on HCT 116 Cells, the GI50 was 100 to 1000 nM. Moreover, the IC50 at recombinant Aurora A is below 100 nM.

`Cc1cc(Nc2nc(Sc3ccc(NC(=O)C4CC4)cc3)nc(C(=O)OCCO)c2N)n[nH]1` [Compound 50, 2-Hydroxyethyl 2-(4-cyclopropanecarboxamidophenylsulfanyl)-5-amino-6-(5-methylpyrazol-3-ylamino)-4-pyrimidinecarboxylate] came in with a GI50 in the assay with HCT 116 Cells of 1000 to 10000 nM. Moreover, the IC50 at recombinant Aurora A is below 100 nM.

Take `Cc1cc(Nc2nc(Sc3ccc(NC(=O)C4CC4)cc3)nc(C(=O)NC(C)(C)C)c2N)n[nH]1` [Compound 57, N-(tert-Butyl) 2-(4-cyclopropanecarboxamidophenylsulfanyl)-5-amino-6-(5-methylpyrazol-3-ylamino)-4-pyrimidinecarboxamide]: the concentration for 50% growth inhibition (GI50) in the assay on HCT 116 Cells fell in the range of 1000 to 10000 nM. Besides, the IC50 at recombinant Aurora A is 100 to 1000 nM.

Usually GI50 stands for the concentration that inhibits growth by half. The low end stands for greater sensitivity of the cells, the high end for lower sensitivity of the cells. As a reminder, the IC50 is the midpoint of a concentration-inhibition curve.
